Test results as given in publication PMC12426922, “Fingerprinting the Intestinal Transport of Low-Molecular-Mass Advanced Glycation End-Products (AGEs) Using a Caco‑2 Transwell Model” (Journal of Agricultural and Food Chemistry, 2025).
Several values for one entry are separate records, joined by “and”; a condition that tells them apart may be missing. Identical values can stand only once. Like-named read-outs stand apart in the source and are kept apart here. Marks after values point to notes of the source that are not given here.

Key:
[1] = tested on: differentiated Caco-2 cells; test: WST-1 cytotoxicity assay, viability of differentiated Caco-2 cells after 2 h exposure; assay type: cell-based, Human
Procedure: (§1) Human colon carcinoma cells (Caco-2 cells) were obtained from the American Type Culture Collection (ATCC, Rockville, MD, USA). Caco-2 cells were cultured in complete culture medium, composed of DMEM GlutaMAX with 10% FBS (v/v), 1% P/S (v/v), and 1% NEAA (v/v) at 37 °C in a 5% (v/v) CO2 incubator. In this study, Caco-2 cells within passages 10–15 were utilized.
The WST-1 assay was used to quantify the viability of differentiated Caco-2 cells upon exposure to the individual AGEs and their equimolar mixture. To this end, Caco-2 cells were seeded in 96-well plates at 3 × 10^4 cells/well (100 μL) and incubated at 37 °C under 5% (v/v) CO2 for 20 days. The complete culture medium was refreshed on each alternate day. After full differentiation, the culture medium was removed, and the cells were washed with HBSS (containing 1% (v/v) HEPES) twice on the testing day. The same volume (100 μL) of HBSS containing a series of concentrations of the different individual test compounds or of a mixture containing all 10 AGEs was added from a 20-times-concentrated stock solution in HBSS. The test concentrations were designed based on the estimated daily intake of total AGEs (0.55–0.66 mg/(kg·day)) and high-exposure scenarios (1.4–1.8 mg/(kg day)). […] After exposure for 2 h, the absorbance at 440 and 620 nm was measured in a plate spectrophotometer (Molecular Devices, San Jose, CA, USA, Spectra Max M2). After measurement, the cell viability was calculated as cell viability (%)=(Atested 440 nm−Atested 620 nm)/(Acontrol 440 nm−Acontrol 620 nm)×100

[2] = Transport of AGE mixture across Caco-2 cell layer (transwell, apical to basolateral); assay type: in vitro ADME, Human; conditions: human; for recovery at 2 h, 100 μmol/L: read-out: percentage of the amount added at the apical side at t = 0: recovery; for Papp at 120 min, 100 μmol/L: data from 120 min
Procedure: as §1
(§2) Caco-2 cells were cultured until reaching 50%–60% confluence (undifferentiated Caco-2 cells), followed by trypsinization. Then, cells were seeded at 3 × 10^4 cells per insert in 100 μL of complete culture medium into the transwell inserts of a 24-well transwell plate, and 600 μL of complete culture medium was added to the basolateral compartments. In both the apical and basolateral compartments, the medium was renewed every other day. After 2 weeks, the transepithelial electrical resistance (TEER) value was measured using a Millicell ERS-2 Electrical Resistance System (Burlington, MA, USA) every other day. Only wells with a TEER value of >400 Ω/cm^2 were used for transport experiments. Moreover, the TEER value was measured before and after the transport experiment to ascertain that the Caco-2 cell layer remained intact during the whole transport experiment.
(§3) Transport experiments were performed after 20 days of differentiation of the Caco-2 cells. The culture medium was replaced with HBSS (containing 1% (v/v) HEPES) 30 min prior to testing in both the apical and basolateral compartments. After the 30 min preincubation, 100 μL of HBSS containing a mixture of the 10 different AGEs including CML, CEL, GALA, argpyrimidine, MG-H1, GOLD, GOLA, MOLD, pentosidine, and pyrraline, each at 100 μmol/L, was added to the apical compartment after removing the preincubation medium, while the basolateral medium was replaced by 600 μL of HBSS. […] At 120 min, a 10 μL sample from the apical side was taken for calculating apical side retention (nontransported percentage).
(§4) The apparent permeability coefficient (Papp) value was calculated according to the methodology described by Yee.
(§5) AGEs were quantified by LC-MS using a Shimadzu Nexera XR LC-40D XR UPLC system (Kyoto, Japan) equipped with a UPLC Amide column (100 mm × 2.1 mm, 1.7 μm) without derivatization coupled with a Shimadzu LCMS-8045 triple quadrupole mass spectrometer (Kyoto, Japan). The analytical column was maintained at 40 °C throughout the quantification process. A multistep binary gradient system of water containing 0.1% (v/v) formic acid (solvent A) and acetonitrile containing 0.1% (v/v) formic acid (solvent B) was used. In the whole gradient program, the total proportion of solvents A and B is always equal to 100%. The gradient program was designed as follows: 75% solvent B to 12.5% solvent B from 0 to 10 min, followed by 12.5% solvent B from 10 to 11 min. […] The initial flow rate was set to 0.30 mL/min. Subsequently, it was reduced to 0.25 mL/min at 0.3 min, which was kept until 10 min. Afterward, there was a gradual decrease, reaching 0.15 mL/min at 11 min, and this rate was maintained until 12 min. […] Between 1 and 11 min of gradient running, the line was set to MS, and for the other time periods, the line was set to waste. The retention time and mass spectrometry parameters of individual AGEs are listed in Table S1 and the chromatograms of the samples are shown in Figure S1.

[3] = tested on: Caco-2 cell layer; test: as above; assay type: in vitro ADME, Human
Procedure: as §1, §2, §3, §4, §5

[4] = tested on: PepT1; test: as above; assay type: in vitro ADME, Human; conditions: human, mixture, each AGE 100 μmol/L
Procedure: as §1, §2, §3, §4, §5

[5] = tested on: Caco-2 cell monolayer; test: Accumulation of AGEs in the Caco-2 cell monolayer after transport experiment; assay type: in vitro ADME, Human; conditions: mixture, each AGE 100 μmol/L, 2 h
Procedure: After the transport experiment, the cell monolayer on the inset membrane was washed three times with HBSS and three times with PBS. […] The samples were subsequently centrifuged at 16 000g for 20 min at 4 °C, and the supernatant was collected for further analysis by LC-MS.
as §5, with “The” for “AGEs were quantified by LC-MS using a Shimadzu Nexera XR LC-40D XR UPLC system (Kyoto, Japan) equipped with a UPLC Amide column (100 mm × 2.1 mm, 1.7 μm) without derivatization coupled with a Shimadzu LCMS-8045 triple quadrupole mass spectrometer (Kyoto, Japan). The”, “100%.” for “100%. The gradient program was designed as follows: 75% solvent B to 12.5% solvent B from 0 to 10 min, followed by 12.5% solvent B from 10 to 11 min.”

[6] = tested on: Caco-2 cell monolayer; set-up: method as in our previous study; conditions: CML in single testing; ref our previous study; cited from earlier work
[7] = Caco-2, 4 °C, mixture, each AGE 100 μmol/L
[8] = 4 °C, mixture, each AGE 100 μmol/L, 2 h
[9] = Gly-Sar 10 mmol/L, mixture, each AGE 100 μmol/L, 2 h
[10] = cytochalasin D pretreatment, mixture, each AGE 100 μmol/L, 2 h
[11] = standard treatment, mixture, each AGE 100 μmol/L, 2 h

For `N[C@@H](CCCCNCC(=O)O)C(=O)O` [CML, N-ε-(carboxymethyl)-lysine], the “effect on cell viability” value [1] was “did not affect cell viability up to the highest concentration tested”, the recovery at 2 h, 100 μmol/L [2, 7] was 90 ± 5.3% and the Papp at 120 min, 100 μmol/L [2, 7] was 0.105 ×10⁻⁶ cm/s. The recovery at 2 h, 100 μmol/L ([2]; Caco-2, cytochalasin D pretreatment, mixture, each AGE 100 μmol/L) was 96.9 ± 5.8%, the Papp at 120 min, 100 μmol/L ([2]; Caco-2, standard treatment (37 °C), equimolar mixture of 10 AGEs, each 100 μmol/L apical) was 0.219 ×10⁻⁶ cm/s and the recovery at 2 h, 100 μmol/L ([2]; Caco-2, standard treatment, mixture, each AGE 100 μmol/L) was 93.1 ± 6.1%. For the same molecule, the Papp at 120 min, 100 μmol/L ([2]; Caco-2, cytochalasin D 1 μg/mL, 30 min apical preincubation, mixture, each AGE 100 μmol/L) was 0.561 ×10⁻⁶ cm/s, the “effect of 4 °C on transport compared to 37 °C” value ([3]; 4 °C versus 37 °C) was “significantly reduced” and the “percentage of the amount added at the apical side at t = 0: apical side” value [3, 8] was 89.4 ± 5.3 ^a %. The “percentage of the amount added at the apical side at t = 0: basolateral side” value [3, 8] was 0.3 ± 0.1 ^b %, the “percentage of the amount added at the apical side at t = 0: apical side” value [3, 9] was 86.2 ± 3.6 ^a % and the “percentage of the amount added at the apical side at t = 0: basolateral side” value [3, 9] was 0.5 ± 0.1 ^b %. For the same molecule, the “percentage of the amount added at the apical side at t = 0: apical side” value [3, 10] was 91.8 ± 5.7 ^a %, the “percentage of the amount added at the apical side at t = 0: basolateral side” value [3, 10] was 1.3 ± 0.6 ^a % and the “Papp value in the mixture as percentage of the Papp value tested in isolation in previous study” value ([3]; mixture versus compound in isolation (our previous study)) was 57%. The “percentage of the amount added at the apical side at t = 0: apical side (nontransported)” value [3, 11] was 89.0 ± 6.1 ^a %, the “percentage of the amount added at the apical side at t = 0: basolateral side (transported)” value [3, 11] was 0.5 ± 0.3 ^b % and the recovery at 2 h, 100 μmol/L ([4]; Caco-2, with Gly-Sar 10 mmol/L (apical compartment), Gly-Sar 10 mmol/L, 2 h, read-out: percentage of the amount added at the apical side at t = 0: recovery) was 92.7 ± 3.1%. For the same molecule, the Papp at 120 min, 100 μmol/L ([4]; Caco-2, with Gly-Sar 10 mmol/L (apical), 10 mmol/L Gly-Sar apical (PepT1 inhibition), data from 120 min) was 0.207 ×10⁻⁶ cm/s, the “percentage of the amount added at the apical side at t = 0: accumulation” value ([5]; 4 °C) was 0.3 ± 0.3 ^c % and the “percentage of the amount added at the apical side at t = 0: accumulation” value ([5]; Gly-Sar 10 mmol/L) was 6.0 ± 2.1 ^a %. The “percentage of the amount added at the apical side at t = 0: accumulation” value ([5]; cytochalasin D pretreatment) was 3.8 ± 0.9 ^b %, the “percentage of the amount added at the apical side at t = 0: accumulation (intracellular)” value ([5]; standard treatment) was 3.5% and 3.5 ± 0.6 ^b % and the intracellular accumulation [6] was 4.5%.
